From PubChem BioAssay AID1963985 (Molecular Pharmacology Branch, DTP, NCI, 2024)
“And” between values parts separate entries of the source, which are not always exact repeats. Equal entries are not always repeated.

Tested on: 252836-082-R-J2-PDC tumor spheroids, viability
Assay: Anticancer human tumor 252836-082-R-J2-PDC patient-derived head and neck squamous cell carcinoma cell line growth inhibition [PI3K]
Conditions: spheroids with HUVEC and MSC; for viability, T/C: stronger effect = lower value
Summary of the method: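 Targeted small molecules plus PI3K inhibitors, half-log dose series from Cmax (default top 10 microM), were applied to heterotypic spheroids of cancer cells with HUVEC and MSCs. Viability indicated growth inhibition.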

[1] = curve of first compound, second compound 0.0316 µM
[2] = curve of first compound, second compound 0.1 µM
[3] = curve of first compound, second compound 0.316 µM
[4] = curve of first compound, second compound 1 µM
[5] = second compound 0.0316 µM, first compound 0.0316 µM
[6] = second compound 0.0316 µM, first compound 0.1 µM
[7] = second compound 0.0316 µM, first compound 0.316 µM
[8] = second compound 0.0316 µM, first compound 1 µM
[9] = second compound 0.1 µM, first compound 0.0316 µM
[10] = second compound 0.1 µM, first compound 0.1 µM
[11] = second compound 0.1 µM, first compound 0.316 µM
[12] = second compound 0.1 µM, first compound 1 µM
[13] = second compound 0.316 µM, first compound 0.0316 µM
[14] = second compound 0.316 µM, first compound 0.1 µM
[15] = second compound 0.316 µM, first compound 0.316 µM
[16] = second compound 0.316 µM, first compound 1 µM
[17] = second compound 1 µM, first compound 0.0316 µM
[18] = second compound 1 µM, first compound 0.1 µM
[19] = second compound 1 µM, first compound 0.316 µM
[20] = second compound 1 µM, first compound 1 µM
[21] = curve of first compound, second compound 0.00316 µM
[22] = curve of first compound, second compound 0.01 µM
[23] = second compound 0.00316 µM, first compound 0.0316 µM
[24] = second compound 0.00316 µM, first compound 0.1 µM
[25] = second compound 0.00316 µM, first compound 0.316 µM
[26] = second compound 0.00316 µM, first compound 1 µM
[27] = second compound 0.00316 µM, first compound 3.16 µM
[28] = second compound 0.00316 µM, first compound 10 µM
[29] = second compound 0.01 µM, first compound 0.0316 µM
[30] = second compound 0.01 µM, first compound 0.1 µM
[31] = second compound 0.01 µM, first compound 0.316 µM
[32] = second compound 0.01 µM, first compound 1 µM
[33] = second compound 0.01 µM, first compound 3.16 µM
[34] = second compound 0.01 µM, first compound 10 µM
[35] = second compound 0.0316 µM, first compound 3.16 µM
[36] = second compound 0.0316 µM, first compound 10 µM
[37] = second compound 0.1 µM, first compound 3.16 µM
[38] = second compound 0.1 µM, first compound 10 µM
[39] = second compound 0.316 µM, first compound 3.16 µM
[40] = second compound 0.316 µM, first compound 10 µM
[41] = second compound 1 µM, first compound 3.16 µM
[42] = second compound 1 µM, first compound 10 µM
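Further: spheroids exposed to agents for seven days before readout.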
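Wherever viability, T/C is given: percent of vehicle DMSO control viability so 100% = untreated growth.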

## CCN1CCN(Cc2ccc(Nc3ncc(F)c(-c4cc(F)c5nc(C)n(C(C)C)c5c4)n3)nc2)CC1 + CC(Nc1ncnc2nc[nH]c12)c1cc2cccc(Cl)c2c(=O)n1-c1ccccc1
[1]
  IC50: > 1 µM
[2]
  IC50: > 1 µM
[3]
  IC50: > 1 µM
[4]
  IC50: > 1 µM
Curve of first compound, second compound 3.16 µM
  IC50: > 1 µM
Curve of first compound, second compound 10 µM
  IC50: > 1 µM
Second compound 0.0316 µM, first compound 0.00316 µM
  viability, T/C: 98.7%
Second compound 0.0316 µM, first compound 0.01 µM
  viability, T/C: 94.4%
[5]
  viability, T/C: 96.9%
[6]
  viability, T/C: 99%
[7]
  viability, T/C: 89.8%
[8]
  viability, T/C: 84.6%
Second compound 0.1 µM, first compound 0.00316 µM
  viability, T/C: 99.2%
Second compound 0.1 µM, first compound 0.01 µM
  viability, T/C: 93.1%
[9]
  viability, T/C: 103%
[10]
  viability, T/C: 108%
[11]
  viability, T/C: 95%
[12]
  viability, T/C: 99.6%
Second compound 0.316 µM, first compound 0.00316 µM
  viability, T/C: 103%
Second compound 0.316 µM, first compound 0.01 µM
  viability, T/C: 94.3%
[13]
  viability, T/C: 95.7%
[14]
  viability, T/C: 96.3%
[15]
  viability, T/C: 96.6%
[16]
  viability, T/C: 96.2%
Second compound 1 µM, first compound 0.00316 µM
  viability, T/C: 92.8%
Second compound 1 µM, first compound 0.01 µM
  viability, T/C: 93.6%
[17]
  viability, T/C: 91.9%
[18]
  viability, T/C: 90.6%
[19]
  viability, T/C: 89.2%
[20]
  viability, T/C: 91.6%
Second compound 3.16 µM, first compound 0.00316 µM
  viability, T/C: 80%
Second compound 3.16 µM, first compound 0.01 µM
  viability, T/C: 69.8%
Second compound 3.16 µM, first compound 0.0316 µM
  viability, T/C: 75.4%
Second compound 3.16 µM, first compound 0.1 µM
  viability, T/C: 79%
Second compound 3.16 µM, first compound 0.316 µM
  viability, T/C: 78.9%
Second compound 3.16 µM, first compound 1 µM
  viability, T/C: 75%
Second compound 10 µM, first compound 0.00316 µM
  viability, T/C: 56%
Second compound 10 µM, first compound 0.01 µM
  viability, T/C: 62.8%
Second compound 10 µM, first compound 0.0316 µM
  viability, T/C: 65%
Second compound 10 µM, first compound 0.1 µM
  viability, T/C: 67.4%
Second compound 10 µM, first compound 0.316 µM
  viability, T/C: 69.8%
Second compound 10 µM, first compound 1 µM
  viability, T/C: 53.6%

## Cn1nccc1Nc1nccc(-c2ccn(C(CO)c3ccc(Cl)c(F)c3)c(=O)c2)n1 (stereo not given)
Compound 0.0316 µM
  viability, T/C: 95.5% [middle of 4 runs]
Compound 0.1 µM
  viability, T/C: 100% [middle of 4 runs]
Compound 0.316 µM
  viability, T/C: 96.9% [middle of 4 runs]
Compound 1 µM
  viability, T/C: 96.5% [middle of 4 runs]
Compound 3.16 µM
  viability, T/C: 85.2% [middle of 4 runs]
Compound 10 µM
  viability, T/C: 74.2% [middle of 4 runs]
Curve of compound
  IC50: > 10 µM

## CC(C)NCC(C(=O)N1CCN(c2ncnc3c2C(C)CC3O)CC1)c1ccc(Cl)cc1 (stereo not given)
Compound 0.0316 µM
  viability, T/C: 84.2% [middle of 4 runs]
Compound 0.1 µM
  viability, T/C: 96.8% [middle of 4 runs]
Compound 0.316 µM
  viability, T/C: 87.8% (2×) and 61.1% and 70.6%
Compound 1 µM
  viability, T/C: 45.1% [middle of 4 runs]
Compound 3.16 µM
  viability, T/C: 31.7% [middle of 4 runs]
Compound 10 µM
  viability, T/C: 19.7% [middle of 4 runs]
Curve of compound
  IC50: 850 nM [middle of 4 runs]

## C=CC(=O)N1CCN(c2nc(=O)n(-c3c(C)ccnc3C(C)C)c3nc(-c4c(O)cccc4F)c(F)cc23)C(C)C1 (stereo not given) + CC(Nc1ccc2c(c1)OCCn1cc(N3C(=O)OCC3C(F)F)nc1-2)C(N)=O
[21]
  IC50: > 10 µM
[22]
  IC50: > 10 µM
[1]
  IC50: > 10 µM
[2]
  IC50: > 10 µM
[3]
  IC50: > 10 µM
[4]
  IC50: < 0.0316 µM
[23]
  viability, T/C: 104%
[24]
  viability, T/C: 87.8%
[25]
  viability, T/C: 105%
[26]
  viability, T/C: 105%
[27]
  viability, T/C: 115%
[28]
  viability, T/C: 95.9%
[29]
  viability, T/C: 95.3%
[30]
  viability, T/C: 90%
[31]
  viability, T/C: 117%
[32]
  viability, T/C: 86.8%
[33]
  viability, T/C: 104%
[34]
  viability, T/C: 89.7%
[5]
  viability, T/C: 79.2%
[6]
  viability, T/C: 78.6%
[7]
  viability, T/C: 104%
[8]
  viability, T/C: 88.4%
[35]
  viability, T/C: 100%
[36]
  viability, T/C: 78.3%
[9]
  viability, T/C: 76.1%
[10]
  viability, T/C: 62.8%
[11]
  viability, T/C: 76.9%
[12]
  viability, T/C: 76.3%
[37]
  viability, T/C: 81%
[38]
  viability, T/C: 94.6%
[13]
  viability, T/C: 63.5%
[14]
  viability, T/C: 60.6%
[15]
  viability, T/C: 59.5%
[16]
  viability, T/C: 56.3%
[39]
  viability, T/C: 62.2%
[40]
  viability, T/C: 67.6%
[17]
  viability, T/C: 45.3%
[18]
  viability, T/C: 53%
[19]
  viability, T/C: 53.3%
[20]
  viability, T/C: 41.6%
[41]
  viability, T/C: 57%
[42]
  viability, T/C: 47.7%

## CC1(C)CCC(CN2CCN(c3ccc(C(=O)NS(=O)(=O)c4ccc(NCC5CCOCC5)c([N+](=O)[O-])c4)c(Oc4cnc5[nH]ccc5c4)c3)CC2)=C(c2ccc(Cl)cc2)C1 + CC(Nc1ccc2c(c1)OCCn1cc(N3C(=O)OCC3C(F)F)nc1-2)C(N)=O
[21]
  IC50: 5.66 µM
[22]
  IC50: 5.49 µM
[1]
  IC50: 5 µM
[2]
  IC50: 3.92 µM
[3]
  IC50: 3.46 µM
[4]
  IC50: < 0.0316 µM
[23]
  viability, T/C: 95.4%
[24]
  viability, T/C: 81.6%
[25]
  viability, T/C: 93.3%
[26]
  viability, T/C: 101%
[27]
  viability, T/C: 99%
[28]
  viability, T/C: 6.79%
[29]
  viability, T/C: 98.6%
[30]
  viability, T/C: 87%
[31]
  viability, T/C: 90.1%
[32]
  viability, T/C: 90.9%
[33]
  viability, T/C: 84.7%
[34]
  viability, T/C: 12.2%
[5]
  viability, T/C: 77.6%
[6]
  viability, T/C: 83.8%
[7]
  viability, T/C: 76.5%
[8]
  viability, T/C: 68.9%
[35]
  viability, T/C: 90.1%
[36]
  viability, T/C: 5.56%
[9]
  viability, T/C: 78.7%
[10]
  viability, T/C: 64.9%
[11]
  viability, T/C: 66.1%
[12]
  viability, T/C: 73%
[37]
  viability, T/C: 59.8%
[38]
  viability, T/C: 4.08%
[13]
  viability, T/C: 70.8%
[14]
  viability, T/C: 55.3%
[15]
  viability, T/C: 54.3%
[16]
  viability, T/C: 56.4%
[39]
  viability, T/C: 54.3%
[40]
  viability, T/C: 6.25%
[17]
  viability, T/C: 47.5%
[18]
  viability, T/C: 49.6%
[19]
  viability, T/C: 49.7%
[20]
  viability, T/C: 47.9%
[41]
  viability, T/C: 39.7%
[42]
  viability, T/C: 15.7%
